Like-named read-outs stand apart in the source and are kept apart here.
Columns and labels:
[1] = Phase 1 and 2 metabolism; cited from earlier work
[2] = in vivo, iv
[3] = system: M. tuberculosis; conditions: cited from earlier work
[4] = system: InhA; conditions: binds preferentially to InhA:NAD+ complex; cited from earlier work
[5] = system: Staphylococcus aureus FabI (saFabI); conditions: cited from earlier work
[6] = system: MRSA; conditions: cited from earlier work
[7] = PET brain uptake; conditions: baboon, i.v.
[8] = design: species or system mice; conditions: mouse, in vivo
[9] = design: species or system baboon; conditions: in vivo

SMILES: CCCCCCc1ccc(Oc2ccccc2)c(O)c1 [PT04]
- route of metabolism [1]: O-glucuronidation was a primary route for metabolism

SMILES: CCCCCCc1ccc(Oc2ccccc2C)c(O)c1 [PT70]
- ability to penetrate the blood brain barrier (BBB) [2]: able to penetrate the brain
- antibacterial activity in a mouse model of tuberculosis infection [3]: shows antibacterial activity
- bacterial burden in the lungs ([3]; infected mice, lungs): did not affect the bacterial burden
- bacterial load in the spleens ([3]; infected mice, spleens): reduced the bacterial load
- residence time on the target [4]: 24 min

SMILES: CCCCCCc1ccc(Oc2ccccc2C#N)c(O)c1 [PT119]
- residence time on saFabI [5]: ~ 12.5 h
- efficacy in a mouse model of MRSA infection [6]: demonstrates efficacy
- ability to penetrate the blood brain barrier (BBB) ([7]; images acquired for 90 min): able to penetrate the brain
- propensity to cross the BBB, qualitative comparison ([7]; qualitative): higher propensity to cross the BBB than PT70

SMILES: CCCCCCc1ccc(Oc2ccccc2[11CH3])c(O)c1 [[^11C]PT70]
- concentration in the liver versus other peripheral organs [8]: much higher in the liver
- time of highest concentration of drug after injection [8]: 20 min
- elimination into the bladder ([9]; baboon): another large portion of the injected [11C]PT-70 was eliminated into the bladder
- clearance from the heart, lung and blood ([9]; iv): cleared rapidly

— article PMC4607644 (Bioorganic & medicinal chemistry letters, 2015)
